Assay results reported in patent US10738056B2 (Aduro BioTech, Inc., priority 2017, dated 2020).
pIC50: −log10 of the molar value.

These molecules were tested against Human cGAS amino acids 155-522 (Homo sapiens (Human), UniProt Q8N884) (assay: cGAS biochemical activity assay (ATP remaining, Kinase-Glo Max luminescence)). Conditions: human cGAS 155-522, ATP remaining (Kinase-Glo Max); read-out: cGAS IC50.
Sequence of Human cGAS amino acids 155-522 (Q8N884 157-522): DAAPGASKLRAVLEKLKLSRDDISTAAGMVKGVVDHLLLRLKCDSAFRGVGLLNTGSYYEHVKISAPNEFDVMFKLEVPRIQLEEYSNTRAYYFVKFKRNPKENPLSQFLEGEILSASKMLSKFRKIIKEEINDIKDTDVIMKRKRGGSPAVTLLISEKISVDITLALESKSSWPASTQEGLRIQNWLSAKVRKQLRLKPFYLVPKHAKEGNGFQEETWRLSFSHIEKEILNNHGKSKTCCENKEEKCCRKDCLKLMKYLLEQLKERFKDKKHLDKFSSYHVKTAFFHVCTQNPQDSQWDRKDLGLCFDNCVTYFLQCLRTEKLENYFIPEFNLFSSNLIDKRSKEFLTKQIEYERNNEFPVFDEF
Molecule `Cc1[nH]c2c(-c3ccccc3)c(C(F)(F)F)nn2c(=O)c1C1=N[C@H](C(=O)O)CO1` [Compound C1192, (S)-2-(5-methyl-7-oxo-3-phenyl-2-(trifluoromethyl)-4,7-dihydropyrazolo[1,5-a]pyrimidin-6-yl)-4,5-dihydrooxazole-4-carboxylic acid] has a pIC50 greater than 4.70. For `Cc1[nH]c2c(C3CCCC3)c(C(F)(F)F)nn2c(=O)c1-c1nnc(C2CCCCC2)o1` [Compound D1017, 6-(5-cyclohexyl-1,3,4-oxadiazol-2-yl)-3-cyclopentyl-5-methyl-2-(trifluoromethyl)pyrazolo[1,5-a]pyrimidin-7(4H)-one], the pIC50 was less than 3.60. Work on `Cc1[nH]c2c(-c3ccccc3)c(C(F)(F)F)nn2c(=O)c1C(=O)Nc1ccc(Cl)cc1` [Compound A1016, N-(4-chlorophenyl)-5-methyl-7-oxo-3-phenyl-2-(trifluoromethyl)-4,7-dihydropyrazolo[1,5-a]pyrimidine-6-carboxamide] yielded a pIC50 of 3.60 to 4.70. `COc1c(Cl)cccc1NC(=O)c1c(C)[nH]c2c(-c3ccccc3)c(C(F)(F)F)nn2c1=O` [Compound A1138, N-(3-chloro-2-methoxyphenyl)-5-methyl-7-oxo-3-phenyl-2-(trifluoromethyl)-4,7-dihydropyrazolo[1,5-a]pyrimidine-6-carboxamide] gave a pIC50 of 3.60 to 4.70. With `Cc1[nH]c2c(-c3ccccc3)c(C(F)(F)F)nn2c(=O)c1-c1cccnc1` [Compound C1003, 5-methyl-3-phenyl-6-(pyridin-3-yl)-2-(trifluoromethyl)pyrazolo[1,5-a]pyrimidin-7(4H)-one] the pIC50 was 3.60 to 4.70. `COc1c(F)cccc1NC(=O)c1c(C)[nH]c2c(-c3ccccc3)c(C(F)(F)F)nn2c1=O` [Compound A1137, N-(3-fluoro-2-methoxyphenyl)-5-methyl-7-oxo-3-phenyl-2-(trifluoromethyl)-4,7-dihydropyrazolo[1,5-a]pyrimidine-6-carboxamide] was tested, and the pIC50 was 3.60 to 4.70. Molecule `Cc1[nH]c2c(-c3ccccc3)c(C(F)(F)F)nn2c(=O)c1-c1nc(C(N)=O)co1` [Compound C1102, 2-(5-methyl-7-oxo-3-phenyl-2-(trifluoromethyl)-4,7-dihydropyrazolo[1,5-a]pyrimidin-6-yl)oxazole-4-carboxamide] has a pIC50 of 3.60 to 4.70. In the case of `CO[C@H]1CCCC1c1nnc(-c2c(C)[nH]c3c(-c4ccccc4)c(C(F)(F)F)nn3c2=O)o1` (some centres unmarked) [D1049 Iso-1], the pIC50 was greater than 4.70. `Cc1nnc(Cc2c(C)[nH]c3c(-c4ccccc4)c(C(F)(F)F)nn3c2=O)o1` [Compound D1032, 5-methyl-6-((5-methyl-1,3,4-oxadiazol-2-yl)methyl)-3-phenyl-2-(trifluoromethyl)pyrazolo[1,5-a]pyrimidin-7(4H)-one] showed a pIC50 of 3.60 to 4.70. In the case of `Cc1cccc(-c2c(C)[nH]c3c(-c4ccccc4)c(C(F)(F)F)nn3c2=O)c1` [Compound C1002, 5-methyl-3-phenyl-6-(m-tolyl)-2-(trifluoromethyl)pyrazolo[1,5-a]pyrimidin-7(4H)-one], the pIC50 was 3.60 to 4.70. In the case of `Cc1[nH]c2c(-c3ccccc3)c(C(F)(F)F)nn2c(=O)c1C(=O)Nc1ccc(C(F)(F)F)cc1` [Compound A1007, 5-methyl-7-oxo-3-phenyl-2-(trifluoromethyl)-N-(4-(trifluoromethyl)phenyl)-4,7-dihydropyrazolo[1,5-a]pyrimidine-6-carboxamide], the pIC50 was 3.60 to 4.70. `Cc1[nH]c2c(-c3cccnc3)c(C(F)(F)F)nn2c(=O)c1-c1nc2c(o1)CCCC2` [Compound C1036, 5-methyl-3-(pyridin-3-yl)-6-(4,5,6,7-tetrahydrobenzo[d]oxazol-2-yl)-2-(trifluoromethyl)pyrazolo[1,5-a]pyrimidin-7(4H)-one] was tested, and the pIC50 was less than 3.60. `Cc1[nH]c2c(-c3ccccc3)c(C(F)(F)F)nn2c(=O)c1C(=O)N1CCN(c2ccccc2)CC1` [Compound A1003, 5-methyl-3-phenyl-6-(4-phenylpiperazine-1-carbonyl)-2-(trifluoromethyl)pyrazolo[1,5-a]pyrimidin-7(4H)-one] was tested, and the pIC50 was less than 3.60. For `COc1cccc(NC(=O)c2c(C)[nH]c3c(-c4ccccc4)c(S(C)(=O)=O)nn3c2=O)c1` [Compound A1126, N-(3-methoxyphenyl)-5-methyl-2-(methylsulfonyl)-7-oxo-3-phenyl-4,7-dihydropyrazolo[1,5-a]pyrimidine-6-carboxamide], the pIC50 was less than 3.60. With `COc1cccc2oc(-c3c(C(C)=O)[nH]c4c(-c5ccccc5)c(C(F)(F)F)nn4c3=O)nc12` [Compound C1144, 5-acetyl-6-(4-methoxybenzo[d]oxazol-2-yl)-3-phenyl-2-(trifluoromethyl)pyrazolo[1,5-a]pyrimidin-7(4H)-one] the pIC50 was 3.60 to 4.70. Work on `Cc1[nH]c2c(-c3ccccc3)c(C(F)(F)F)nn2c(=O)c1N1Cc2ccc(N)cc2C1=O` [Compound C1217, 6-(6-amino-1-oxoisoindolin-2-yl)-5-methyl-3-phenyl-2-(trifluoromethyl)pyrazolo[1,5-a]pyrimidin-7(4H)-one] yielded a pIC50 of 3.60 to 4.70. Molecule `Cc1[nH]c2c(-c3ccccc3)c(C(F)(F)F)nn2c(=O)c1C(=O)N1CCCCC1` [Compound A1011, 5-methyl-3-phenyl-6-(piperidine-1-carbonyl)-2-(trifluoromethyl)pyrazolo[1,5-a]pyrimidin-7(4H)-one] has a pIC50 of less than 3.60. Work on `Cc1[nH]c2c(-c3ccccc3)c(C(F)(F)F)nn2c(=O)c1-c1nc2cc(Cl)ccc2o1` [Compound C1028, 6-(5-chlorobenzo[d]oxazol-2-yl)-5-methyl-3-phenyl-2-(trifluoromethyl)pyrazolo[1,5-a]pyrimidin-7(4H)-one] yielded a pIC50 of less than 3.60. For `Cc1[nH]c2c(-c3ccccc3)c(C(F)(F)F)nn2c(=O)c1CC(=O)N1CCN(c2ccccc2)CC1` [Compound B1007, 5-methyl-6-(2-oxo-2-(4-phenylpiperazin-1-yl)ethyl)-3-phenyl-2-(trifluoromethyl)pyrazolo[1,5-a]pyrimidin-7(4H)-one], the pIC50 was less than 3.60. `COc1cc(F)cc(NC(=O)c2c(C)[nH]c3c(-c4ccccc4)c(C(F)(F)F)nn3c2=O)c1` [Compound A1133, N-(3-fluoro-5-methoxyphenyl)-5-methyl-7-oxo-3-phenyl-2-(trifluoromethyl)-4,7-dihydropyrazolo[1,5-a]pyrimidine-6-carboxamide] gave a pIC50 greater than 4.70. Molecule `Cc1[nH]c2c(-c3ccccc3)c(C(F)(F)F)nn2c(=O)c1-c1nnc(C2CCN(C(=O)OC(C)(C)C)CC2)o1` [Compound D1044, tert-butyl 4-(5-(5-methyl-7-oxo-3-phenyl-2-(trifluoromethyl)-4,7-dihydropyrazolo[1,5-a]pyrimidin-6-yl)-1,3,4-oxadiazol-2-yl)piperidine-1-carboxylate] has a pIC50 of 3.60 to 4.70. `Cc1[nH]c2c(-c3ccccc3)c(C(F)(F)F)nn2c(=O)c1-c1nnc(-c2ccc([N+](=O)[O-])cc2)o1` [Compound D1061, 5-methyl-6-(5-(4-nitrophenyl)-1,3,4-oxadiazol-2-yl)-3-phenyl-2-(trifluoromethyl)pyrazolo[1,5-a]pyrimidin-7(4H)-one] was tested, and the pIC50 was 3.60 to 4.70. Work on `CN(Cc1ccccc1)C(=O)c1c[nH]c2c(-c3ccccc3)c(C(F)(F)F)nn2c1=O` [Compound A1013, N-benzyl-N-methyl-7-oxo-3-phenyl-2-(trifluoromethyl)-4,7-dihydropyrazolo[1,5-a]pyrimidine-6-carboxamide] yielded a pIC50 of less than 3.60. With `Cc1[nH]c2c(-c3ccccc3)c(C(F)(F)F)nn2c(=O)c1-c1nc2ccccc2n1CC1CCCC1` [Compound C1235, 6-(1-(cyclopentylmethyl)-1H-benzo[d]imidazol-2-yl)-5-methyl-3-phenyl-2-(trifluoromethyl)pyrazolo[1,5-a]pyrimidin-7(4H)-one] the pIC50 was 3.60 to 4.70. `Cc1[nH]c2c(-c3ccccc3)c(C(F)(F)F)nn2c(=O)c1Cc1nnc(C2CCCC2)o1` [Compound D1034, 6-((5-cyclopentyl-1,3,4-oxadiazol-2-yl)methyl)-5-methyl-3-phenyl-2-(trifluoromethyl)pyrazolo[1,5-a]pyrimidin-7(4H)-one] was tested, and the pIC50 was 3.60 to 4.70. `Cc1[nH]c2c(C3CCCC3)c(C(F)(F)F)nn2c(=O)c1Cc1ccccc1` [Compound C1267, 6-benzyl-3-cyclopentyl-5-methyl-2-(trifluoromethyl)pyrazolo[1,5-a]pyrimidin-7(4H)-one] was tested, and the pIC50 was less than 3.60. `Cc1[nH]c2c(-c3ccccc3)c(C(F)(F)F)nn2c(=O)c1C(=O)Nc1ccn(C2CCCCC2)n1` [Compound A1041, N-(1-cyclohexyl-1H-pyrazol-3-yl)-5-methyl-7-oxo-3-phenyl-2-(trifluoromethyl)-4,7-dihydropyrazolo[1,5-a]pyrimidine-6-carboxamide] gave a pIC50 of 3.60 to 4.70. Molecule `COCc1[nH]c2c(-c3ccccc3)c(C(F)(F)F)nn2c(=O)c1C(=O)Nc1ccccc1OC` [Compound A1042, 5-(methoxymethyl)-N-(2-methoxyphenyl)-7-oxo-3-phenyl-2-(trifluoromethyl)-4,7-dihydropyrazolo[1,5-a]pyrimidine-6-carboxamide] has a pIC50 of 3.60 to 4.70. `Cc1[nH]c2c(-c3ccccc3)c(C(F)(F)F)nn2c(=O)c1C(=O)N[C@H]1CCN(C(=O)OC(C)(C)C)C1` [Compound A1034, tert-butyl (S)-3-(5-methyl-7-oxo-3-phenyl-2-(trifluoromethyl)-4,7-dihydropyrazolo[1,5-a]pyrimidine-6-carboxamido)pyrrolidine-1-carboxylate] gave a pIC50 of less than 3.60. Work on `COc1cccc2c1nc(-c1c(C)[nH]c3c(-c4ccccc4)c(C(F)(F)F)nn3c1=O)n2C` [Compound C1087, 6-(4-methoxy-1-methyl-1H-benzo[d]imidazol-2-yl)-5-methyl-3-phenyl-2-(trifluoromethyl)pyrazolo[1,5-a]pyrimidin-7(4H)-one] yielded a pIC50 of 3.60 to 4.70. `Cc1[nH]c2c(-c3ccccc3)c(C(F)(F)F)nn2c(=O)c1C(=O)Nc1cccc(OCc2ccccc2)c1` [Compound A1086, N-(3-(benzyloxy)phenyl)-5-methyl-7-oxo-3-phenyl-2-(trifluoromethyl)-4,7-dihydropyrazolo[1,5-a]pyrimidine-6-carboxamide] was tested, and the pIC50 was greater than 4.70. With `COc1cccn2c(CO)c(-c3c(C)[nH]c4c(-c5ccccc5)c(C(F)(F)F)nn4c3=O)nc12` [Compound C1215, 6-(3-(hydroxymethyl)-8-methoxyimidazo[1,2-a]pyridin-2-yl)-5-methyl-3-phenyl-2-(trifluoromethyl)pyrazolo[1,5-a]pyrimidin-7(4H)-one] the pIC50 was 3.60 to 4.70.
